These results are taken from PubChem BioAssay AID1508612.

The nature of the series: passive permeability, PAMPA, ADME assay (AID 1508612). As to conditions: pH 7.4, 30.0 min, 50.0 µM. In general terms: The PAMPA barrier holds no transporters, so it reflects passive diffusion.

As for `COCCCOc1ccnc(CS(=O)c2nc3ccccc3[nH]2)c1C` (centres undefined), the Papp was found to be 212 ×10⁻⁶ cm/s.
Consider `Cn1ccc2c(C(=O)NCc3cccnc3)nc(-c3ccc(CO)cc3)cc21`, for which the Papp was found to be 317 ×10⁻⁶ cm/s.
Turning to `CC(C)(N)CNC(=O)CC1CCC2(CC1)OOC1(O2)C2CC3CC(C2)CC1C3` (centres undefined), the Papp is 488 ×10⁻⁶ cm/s.
With `CCc1ccc(NC(=O)[C@H](Cc2c[nH]c3ccccc23)NC(=O)[C@@H]2Cc3ccccc3CN2)cc1`, the Papp turned out to be 111 ×10⁻⁶ cm/s.
As to `COc1cccc(CNc2ccc(S(=O)(=O)Nc3cccnc3)cc2)c1O`, the Papp was found to be 632 ×10⁻⁶ cm/s.
Consider `CCCCn1cnc2cc(NCc3ccc(OCC)cc3)ccc21`, for which the apparent permeability coefficient (Papp) is > 1000 ×10⁻⁶ cm/s.
Take `O=C(NC1CC1)c1nc(-c2cccnc2)c2cnccn12`: the Papp was 31.8 ×10⁻⁶ cm/s.
For `Cc1ccc(-c2nc3ccccc3o2)cc1NC(=O)COc1ccccc1`, the Papp came to 791 ×10⁻⁶ cm/s.
On to `COc1cccc(Cn2c(=O)n(-c3cccc(Cl)c3C)c(=O)c3c4c(sc32)CN(C(C)=O)CC4)c1`, for which the Papp is > 1000 ×10⁻⁶ cm/s.
As for `Cc1ccnc(NC(=S)N2CCN(c3ccc(C(F)(F)F)cc3[N+](=O)[O-])CC2)c1`, the Papp was > 1000 ×10⁻⁶ cm/s.
With `COc1ccc(C2c3c(ncn(CCN4CCOCC4)c3=N)Oc3ccc4ccccc4c32)cc1OC` (centres undefined), the apparent permeability (Papp) is > 1000 ×10⁻⁶ cm/s.
The figure for `Fc1ccc(-c2ccc(Nc3nc(-c4ccncc4)nc4ccccc34)cc2F)c(F)c1` is 19.5 ×10⁻⁶ cm/s.
With `COc1cc2cc(CN3CCC(N(C)C)C3)c(-c3cccc(Cl)c3)nc2cc1OC` (centres undefined), the Papp was > 1000 ×10⁻⁶ cm/s.
With `Cc1ccc2oc3c(c(=O)c2c1)C(c1cccc(O)c1)N(CCCN1CCOCC1)C3=O` (centres undefined), the Papp turned out to be 103 ×10⁻⁶ cm/s.
Regarding `NC(=O)C1CCN(c2nc(-c3ccc(OCc4ccccc4)cc3)cs2)CC1`, the Papp was < 1 ×10⁻⁶ cm/s.
The figure for `Fc1ccc(Nc2nc(-c3ccnc4ccccc34)nc3ccccc23)cc1F` is 202 ×10⁻⁶ cm/s; for `O=C1CCCC2=C1C(c1[nH]ncc1Cl)N=C(Nc1nc3c(Cl)cccc3o1)N2` (centres undefined) it is 162 ×10⁻⁶ cm/s; for `Cn1cc(S(=O)(=O)N2CCCCCC2)cc1C(=O)Nc1ccc(Cl)c(C(F)(F)F)c1` it is 305 ×10⁻⁶ cm/s.
Then `O=C1CCCc2cc(S(=O)(=O)Nc3cnccc3C(=O)Nc3nc(-c4ccccc4)cs3)ccc2N1`, with 1.7 ×10⁻⁶ cm/s.
As for `COc1ccc(NC(=O)c2[nH]c(C)c(C(C)=O)c2C)cc1`, the Papp was found to be 377 ×10⁻⁶ cm/s.
Then `COc1ccc2c3c([nH]c2c1)C1CC2C(CC(O)C(OC)C2CO)CN1CC3` (centres undefined), with 3.2 ×10⁻⁶ cm/s.
Regarding `COc1ccc(-n2c(C)cc(-c3nnc4n3CCCCC4)c2C)cc1`, the Papp came out at 488 ×10⁻⁶ cm/s.
As to `O=c1[nH]c(N2CCOCC2)nc2c1CCN(Cc1cc(Cl)ccc1F)CC2`, the Papp was > 1000 ×10⁻⁶ cm/s.
`Cc1c(C(=O)NN2CCCCC2)nn(-c2ccc(Cl)cc2Cl)c1-c1ccc(Cl)cc1`: the Papp is > 1000 ×10⁻⁶ cm/s.
Take `CCN(CC)CCCCNc1ncc2cc(-c3c(Cl)cccc3Cl)c(NC(=O)NC(C)(C)C)nc2n1`: the Papp was > 1000 ×10⁻⁶ cm/s.
The compound `OCCn1cc(-c2cnc3nnn(Cc4ccc5ncccc5c4)c3n2)cn1` displayed a Papp of 97.5 ×10⁻⁶ cm/s.
On to `O=C(Nc1nc(-c2ccccc2)cs1)c1ccncc1NS(=O)(=O)c1ccccc1`, for which the apparent permeability (Papp) turned out to be 501 ×10⁻⁶ cm/s.
Regarding `Cc1ccc(NC(=O)c2ccncc2NS(=O)(=O)c2ccc(C)cc2)cc1`, the Papp was 245 ×10⁻⁶ cm/s.
`CC(C)Nc1oc(-c2cccc3ccccc23)nc1C#N`: the Papp is > 1000 ×10⁻⁶ cm/s.
In the case of `Cc1cc(C)nc(NC(=S)N2CCN(c3ccc(F)cc3F)CC2)c1`, the Papp was > 1000 ×10⁻⁶ cm/s.
Consider `CCOC(=O)c1cc(-c2ccco2)nc2c1c(C)nn2CCC#N`, for which the Papp turned out to be 989 ×10⁻⁶ cm/s.
Take `CC(=O)Nc1ccc(-c2csc(N3CCC(C(N)=O)CC3)n2)cc1`: the Papp is < 1 ×10⁻⁶ cm/s.
Then `COc1ccc(CNC(=O)c2cnc3ccccc3n2)cc1`, with > 1000 ×10⁻⁶ cm/s; and `CN(C)C(=O)c1cc(-c2ccc(S(C)(=O)=O)cc2)c2cnn(C)c2n1`, with 22.6 ×10⁻⁶ cm/s.
For the compound `Cc1ccc(C(=O)N2CCc3c(nc4cc(-c5ccccc5)[nH]n4c3=O)C2)cn1`, the Papp was < 1 ×10⁻⁶ cm/s.
`CN(C)CCOC1=Cc2ccccc2Sc2ccc(Cl)cc21` gave a Papp of 996 ×10⁻⁶ cm/s.
Then `Cc1ccnc(NC(=S)N2CCN(c3ccc(Cl)cc3Cl)CC2)c1`, with 868 ×10⁻⁶ cm/s.
Regarding `C[C@H]1CN(C(=O)Nc2ccc(F)cc2F)C[C@@H]1c1nc(-c2ccccc2)no1`, the Papp was > 1000 ×10⁻⁶ cm/s.
Consider `CCc1ccc(OC(C)C(=O)N2CCC(c3nc4ccccc4o3)CC2)cc1` (centres undefined), for which the Papp is > 1000 ×10⁻⁶ cm/s.
In turn, `CC(=O)c1c(C)[nH]c(C(=O)Nc2cccc(S(=O)(=O)Nc3ccc(Br)cc3)c2)c1C` yielded a Papp of 288 ×10⁻⁶ cm/s.
Then `OCc1cccc(-c2cc(-c3cccnc3)c3cncn3c2)c1`, with 76 ×10⁻⁶ cm/s.
Regarding `COc1ccc(NS(=O)(=O)c2ccc(C)c(C(=O)Nc3ccc4oc(C)nc4c3)c2)cc1`, the Papp turned out to be 737 ×10⁻⁶ cm/s.
As to `CCN(CC)[S+](=O)([O-])c1cc(NC(=O)c2[nH]c(C)c(C(C)=O)c2C)ccc1OC`, the Papp amounted to 645 ×10⁻⁶ cm/s.
`Cc1ccccc1C(=O)N1CCc2cc(-c3nc(NC(=O)Cc4ccc5c(c4)OCO5)sc3C)ccc21` gave a Papp of 23.9 ×10⁻⁶ cm/s.
With `CC(Nc1nc(N2CCN(S(C)(=O)=O)CC2)nc2ccccc12)c1ccccc1` (centres undefined), the Papp was > 1000 ×10⁻⁶ cm/s.
On to `CC(C)(C)n1nc(-c2ccc(Cl)cc2)c2c(N)ncnc21`, for which the Papp is > 1000 ×10⁻⁶ cm/s.
`CCOC(=O)c1ccc(NC(=O)c2sc3nc4c(cc3c2N)N2CCC4CC2)cc1` displayed a Papp of 928 ×10⁻⁶ cm/s.
In turn, `CCCCNc1oc(-c2cccc3ccccc23)nc1C#N` registered a Papp of 38 ×10⁻⁶ cm/s.
In turn, `Cc1ccc2c(c1)/C(=C\c1cc(Cl)c(O)c(Cl)c1)C(=O)N2` had a Papp of 97.5 ×10⁻⁶ cm/s.
Then `COc1ccc(-c2ccc(Nc3nc(-c4ccncc4)nc4ccccc34)cc2F)cc1F`, with 39.9 ×10⁻⁶ cm/s; and `COc1c2c(c3c(c1CCC(=O)O)OC(C)(C)C=C3)OC(C)(C)C=C2`, with 43.9 ×10⁻⁶ cm/s; and `N#Cc1ccc(S(=O)(=O)Nc2cnccc2C(=O)Nc2nc(-c3ccccc3)cs2)cc1`, with 279 ×10⁻⁶ cm/s.
Regarding `Cc1ccc(S(=O)(=O)Nc2cnccc2C(=O)Nc2nc(C(=O)O)cs2)cc1`, the Papp was < 1 ×10⁻⁶ cm/s.
The figure for `CC(=O)c1c(C)[nH]c(C(=O)Nc2cccc([S+](=O)([O-])N3CCC(F)(F)CC3)c2)c1C` is > 1000 ×10⁻⁶ cm/s.
The compound `O=C(Nc1nc(-c2ccccc2)cs1)c1ccncc1NS(=O)(=O)c1cccc(Cl)c1` gave a Papp of 754 ×10⁻⁶ cm/s.
On to `NC(=O)C1CCN(c2nnc(-c3ccc4c(c3)OCCCO4)s2)CC1`, for which the Papp turned out to be 83.8 ×10⁻⁶ cm/s.
Turning to `O=C(Nc1nc(-c2ccccn2)cs1)c1cccc(-n2cnnn2)c1`, the Papp was 290 ×10⁻⁶ cm/s.
Take `O=C(Cc1ccc(-c2csc(Nc3ccc(F)cc3)n2)s1)N1CCOCC1`: the Papp is > 1000 ×10⁻⁶ cm/s.
`O=C(c1ccc2c(c1)ncn2-c1ccc(C(F)(F)F)cc1)N1CCCCC1`: the Papp was > 1000 ×10⁻⁶ cm/s.
Turning to `COc1cc2c(cc1-c1c(C)noc1C)ncc1[nH]c(=O)n([C@H](C)c3ccccn3)c12`, the Papp came out at 858 ×10⁻⁶ cm/s.
With `O=c1c2ccccc2nc2n1CCC2`, the Papp amounted to 44.2 ×10⁻⁶ cm/s.
Take `O=S(=O)(Nc1nccs1)c1ccc(NCc2cc(F)ccc2O)cc1`: the Papp was determined as 8.23 ×10⁻⁶ cm/s.
The figure for `NC[C@H](O)c1ccc(O)c(O)c1` is 5.7 ×10⁻⁶ cm/s; for `COC(=O)CNC(=O)c1nc(-c2ccc(Cl)cc2Cl)c2cnccn12` it is > 1000 ×10⁻⁶ cm/s.
As to `COc1ccc2oc(NC3=NC(c4[nH]ncc4Cl)C4=C(CCCC4=O)N3)nc2c1` (centres undefined), the Papp was found to be 706 ×10⁻⁶ cm/s.
`CCS(=O)(=O)N1CC(CC#N)(n2cc(-c3ncnc4[nH]ccc34)cn2)C1`: the Papp was 11.1 ×10⁻⁶ cm/s.
In turn, `O=C(NC1CCCCC1)N1Cc2[nH]cnc2C[C@H]1c1nc(-c2cccc([N+](=O)[O-])c2)no1` showed a Papp of 202 ×10⁻⁶ cm/s.
`O=S(=O)(c1ccccc1)N1CCN(c2nc(-c3ccc(Br)cc3)cs2)CC1` displayed a Papp of 205 ×10⁻⁶ cm/s.
Then `CCN(CC)CCCNC(=O)c1oc2c(c1C)-c1nn(Cc3ccc(Cl)cc3)cc1CC2`, with > 1000 ×10⁻⁶ cm/s; and `CC(C)(C)NS(=O)(=O)c1ccc(-c2ccc3[nH]nc(N)c3c2)cc1`, with 564 ×10⁻⁶ cm/s.
Then `NC(=O)N1CCN(c2nc(-c3ccc(Br)cc3)cs2)CC1`, with 958 ×10⁻⁶ cm/s; and `CSc1nnc2c3ccccc3n(CCc3ccccc3)c2n1`, with > 1000 ×10⁻⁶ cm/s.
`CCc1oc2ccccc2c1C(=O)c1cc(Br)c(O)c(Br)c1`: the Papp was 62 ×10⁻⁶ cm/s.
`O=C(c1ccc2ncccc2c1)N1CCc2c(nc3cc[nH]n3c2=O)C1`: the Papp amounted to 101 ×10⁻⁶ cm/s.
In the case of `O=c1cc(CSc2ccc(Cl)cc2)nc(-c2ccccn2)[nH]1`, the Papp is > 1000 ×10⁻⁶ cm/s.
For `NC(=O)C1CCN(c2nc(-c3ccc(N4CCCCC4)nc3)cs2)CC1`, the apparent permeability coefficient (Papp) stood at 23.9 ×10⁻⁶ cm/s.
On to `COc1cc(NC(=O)c2nc3ccccc3n(C)c2=O)cc(OC)c1OC`, for which the Papp was 145 ×10⁻⁶ cm/s.
Then `Nc1nc(N)c2cc(Sc3ccc4ccccc4c3)ccc2n1`, with 461 ×10⁻⁶ cm/s.
Turning to `Cc1ccc(S(=O)(=O)NCCC(=O)Nc2nc(-c3ccccc3)cs2)cc1`, the Papp was 861 ×10⁻⁶ cm/s.
As to `CCOC(=O)N1CCN(Cc2nc3cc(NC(=O)c4ccc(OC)cc4)ccc3n2C(C)C)CC1`, the Papp was > 1000 ×10⁻⁶ cm/s.
The figure for `COc1cc(-c2csc(N3CCC(C(N)=O)CC3)n2)cc(OC)c1OC` is 257 ×10⁻⁶ cm/s.
The figure for `CC(C)(C#N)c1ccc(N2C(=O)OCc3cnc4ccc(-c5cnc6ccccc6c5)cc4c32)cc1` is 47.5 ×10⁻⁶ cm/s.
`CS(=O)(=O)c1ccc2nc(NC(=O)C3CC3)sc2c1`: the Papp amounted to 106 ×10⁻⁶ cm/s.
In the case of `O=C(Nc1ccc(S(=O)(=O)Nc2nccs2)cc1)c1cccnc1`, the Papp was < 1 ×10⁻⁶ cm/s.
On to `Cc1ccc(S(=O)(=O)Nc2cnccc2C(=O)Nc2ccc(N3CCOCC3)cc2)cc1`, for which the Papp amounted to 53.3 ×10⁻⁶ cm/s.
Regarding `CN1CCN(Cc2ccc(-c3ccc(C(C)(C)C#N)cc3)nc2)CC1`, the Papp was > 1000 ×10⁻⁶ cm/s.
For `O=C1CCCC2=C1C(c1ccccc1Cl)N=C(Nc1nc3ccccc3o1)N2` (centres undefined), the Papp is > 1000 ×10⁻⁶ cm/s.
For `O=S(=O)(Nc1nccs1)c1ccc(NCc2cc(Cl)ccc2O)cc1`, the Papp was 10.8 ×10⁻⁶ cm/s.
For the compound `CN(C)c1cccc(-c2nc(N3CCC(C(N)=O)CC3)ncc2F)c1`, the apparent permeability coefficient (Papp) worked out at 780 ×10⁻⁶ cm/s.
`O=C(Cc1ccc(Cl)c(Cl)c1)Nc1ccc(S(=O)(=O)Nc2cncnc2)cc1` displayed a Papp of 1.5 ×10⁻⁶ cm/s.
For `NCC(=O)Nc1ccc(Cl)cc1C(=O)c1ccc[nH]1`, the Papp was > 1000 ×10⁻⁶ cm/s.
Regarding `O=C(Nc1nc(-c2ccccc2)cs1)c1ccncc1NS(=O)(=O)c1ccc2ccccc2c1`, the Papp was > 1000 ×10⁻⁶ cm/s.
As to `CCCc1cc(C)[nH]c(=O)c1CNC(=O)c1cc(-c2ccc(N3CCN(C(C)C)CC3)nc2)cc2c1cnn2C(C)C`, the Papp is > 1000 ×10⁻⁶ cm/s.
For `CCCCCn1c(=O)[nH]c2cc(C(=O)NCCCN3CCC(C)CC3)ccc2c1=O`, the Papp stood at 91.7 ×10⁻⁶ cm/s.

Usually Papp stands for a coefficient for how fast a substance crosses the barrier. Read a low Papp as poor permeation.
